Ten compounds from ChEMBL document CHEMBL1201862, “PubChem BioAssay data set” (2004) can be followed below.

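Interpolation was linear, between the two tested concentrations surrounding the appropriate level; five concentrations were tested over 48 hours in 96-well plates. The concentration for 50% growth inhibition is given as GI50.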 Active and inactive are the calls of the source. Cut-off read from the data, not from the text of the source: active = GI50 up to about 1.1 µM and inactive = higher.

Holding throughout (assay): NCI anticancer screen, dose series, 48 h
For experiment [1], the system named is ACHN.
The subject of experiment [2] is BT-549.
For experiment [3], the system named is CAKI-1.
The test system of experiment [4] is DU-145.
Experiment [5] deals with HCC 2998.
In experiment [6] the test system is HL-60.
For experiment [7], the system named is HT-29.
The test system of experiment [8] is LOX IMVI.
Experiment [9] deals with MDA-N.
Experiment [10] relates to OVCAR-8.
Experiment [11] concerns PC-3.
Experiment [12] concerns SF-268.
In experiment [13] the test system is SK-MEL-28.
Experiment [14] has as its system SK-MEL-2.
Experiment [15] has as its system SNB-75.
In experiment [16] the test system is SR.
Experiment [17] has as its system SW-620.
Experiment [18] deals with TK-10.
The subject of experiment [19] is UACC-62.
Experiment [20] deals with A498.

Take `CC(OC(=O)C(CC(=O)OC(C)(C)C)NC(=O)OC(C)(C)C)C(=O)OCc1ccccc1` (stereo not given): the GI50 in experiment [1], in experiment [2], in experiment [3], in experiment [4], in experiment [5] and in experiment [6] was > 100 µM (inactive) each time. In addition, the GI50 in experiment [7], in experiment [8], in experiment [9], in [10], in experiment [11] and in experiment [12] was > 100 µM (inactive) each time. The GI50 in experiment [13], in [14], in experiment [15], in [16], in experiment [17] and in experiment [18] was > 100 µM (inactive) in each case. The GI50 in [19] was > 100 µM (inactive).
As to `O=P1(C(O)c2ccccc2)N(Cc2ccccc2)[C@@H]2CCCC[C@H]2N1Cc1ccccc1` (stereo not given in full), the GI50 in [1] is 30.8 µM (inactive); in experiment [2] it was 50.2 µM (inactive); in [3] it was 64.4 µM (inactive); in experiment [4], 35 µM (inactive); in experiment [5], 20 µM (inactive); in experiment [6], 22.3 µM (inactive). The GI50 was 15 µM (inactive) in experiment [7]; 17.5 µM (inactive) in experiment [8]; 31.9 µM (inactive) in [9]; 31 µM (inactive) in [10]; 24.5 µM (inactive) in experiment [11]; 25.6 µM (inactive) in experiment [12]. For the same compound, the GI50 in [13] was > 100 µM (inactive); in experiment [14], 27 µM (inactive); in experiment [15], 18.4 µM (inactive); in experiment [16] it was 24.3 µM (inactive); in experiment [17], 33.9 µM (inactive); in [18], 30.3 µM (inactive). The GI50 in [19] was 30.7 µM (inactive).
Regarding `CCCNC(=O)CCC(C)C1CCC2C3C(C[C@H](OC(C)=O)[C@]12C)[C@@]1(C)CCC2(C[C@H]1C[C@H]3OC(C)=O)OOC1(CC[C@]3(C)C4C[C@H](OC(C)=O)[C@]5(C)C(C(C)CCC(=O)NCCC)CCC5C4[C@H](OC(C)=O)C[C@@H]3C1)OO2` (stereo not given in full), the GI50 is 4.37 µM (inactive) in experiment [1]; > 100 µM (inactive) in experiment [2]; 46.5 µM (inactive) in experiment [3]; 53.2 µM (inactive) in experiment [4]; > 100 µM (inactive) in [5]; > 100 µM (inactive) in [6]. Moreover, the GI50 is > 100 µM (inactive) in [7]; > 100 µM (inactive) in experiment [8]; > 100 µM (inactive) in [9]; 23.8 µM (inactive) in experiment [10]; > 100 µM (inactive) in experiment [11]; 32.1 µM (inactive) in experiment [12]. The GI50 in experiment [13] was > 100 µM (inactive); in [14], > 100 µM (inactive); in experiment [15], 57.5 µM (inactive); in [16], > 100 µM (inactive); in [17] it was > 100 µM (inactive); in experiment [18], > 100 µM (inactive).
Consider `CN1CCN(Cc2nc3c(s2)CCc2sccc2-3)CC1`, for which the GI50 in experiment [20] was 12.7 µM (inactive); in [1], > 100 µM (inactive); in [2], > 100 µM (inactive); in [3], 37.7 µM (inactive); in experiment [4], > 100 µM (inactive); in [5] it was 51.4 µM (inactive). Moreover, the GI50 in experiment [7] was 32.7 µM (inactive); in experiment [9], 48.6 µM (inactive); in experiment [10], 94.6 µM (inactive); in experiment [11], 63.8 µM (inactive); in experiment [12], 82.6 µM (inactive); in experiment [13], 25.4 µM (inactive). Moreover, the GI50 in experiment [14] is > 100 µM (inactive); in [15], 75.7 µM (inactive); in experiment [16] it was 36.1 µM (inactive); in experiment [17], > 100 µM (inactive); in experiment [18], 92.7 µM (inactive); in [19], 24.8 µM (inactive).
Consider `N#CC(c1ccccc1)N(CCCCCCN(C(=O)c1ccccc1)C(C#N)c1ccccc1)C(=O)c1ccccc1` (stereo not given), for which the GI50 in experiment [20] is 15 µM (inactive); in experiment [1], 38.4 µM (inactive); in [2] it was 31.1 µM (inactive); in experiment [3] it was 32.1 µM (inactive); in experiment [4], 41.3 µM (inactive); in experiment [5], 17.1 µM (inactive). For the same compound, the GI50 is 32.3 µM (inactive) in experiment [6]; 21.8 µM (inactive) in [7]; 29.3 µM (inactive) in experiment [8]; 45.1 µM (inactive) in experiment [9]; 30.1 µM (inactive) in experiment [10]; 28.2 µM (inactive) in experiment [11]. For the same compound, the GI50 is 40.4 µM (inactive) in experiment [12]; 44.4 µM (inactive) in experiment [13]; 23.6 µM (inactive) in [14]; 52.4 µM (inactive) in experiment [15]; 39.3 µM (inactive) in experiment [17]; 18.7 µM (inactive) in [18]. Besides, the GI50 in experiment [19] is 26.3 µM (inactive).
For `Cc1cc(Cl)nc2nc(Cl)c(N)cc12`, the GI50 is 5.38 µM (inactive) in [1]; 14.6 µM (inactive) in [2]; 0.354 µM (active) in experiment [3]; 7.03 µM (inactive) in experiment [4]; 1.86 µM (inactive) in experiment [5]; 1.77 µM (inactive) in experiment [6]. The GI50 was 2.15 µM (inactive) in experiment [7]; 1.91 µM (inactive) in experiment [8]; 1.88 µM (inactive) in [9]; 2.67 µM (inactive) in [10]; 12.1 µM (inactive) in experiment [11]; 2.29 µM (inactive) in experiment [12]. Also, the GI50 in [13] is 2.56 µM (inactive); in [14] it was 14.9 µM (inactive); in [15], 10.6 µM (inactive); in experiment [16] it was 2.88 µM (inactive); in experiment [17], 2.04 µM (inactive); in experiment [18], 6.58 µM (inactive). In addition, the GI50 in experiment [19] was 2.37 µM (inactive).
On to `CC(=O)OC1COC(Nc2nc(NCc3ccccc3)n(C)c(=O)c2N=O)C(OC(C)=O)C1OC(C)=O` (stereo not given), for which the GI50 in experiment [20], in experiment [1], in [2], in [3], in experiment [4] and in [5] was > 10 µM (inactive) each time. For the same compound, the GI50 in experiment [6], in experiment [7], in [8], in [9], in experiment [10] and in experiment [11] was > 10 µM (inactive) each time. The GI50 in experiment [12], in [13], in [14], in experiment [15], in experiment [17] and in experiment [18] was > 10 µM (inactive) in each case. Also, in experiment [19], the GI50 is > 10 µM (inactive).
Turning to `C=C[C@@]1(C)CC(=O)[C@]2(O)[C@@]3(C)[C@@H](OC(C)=O)CCC(C)(C)[C@@H]3[C@H](OC(C)=O)[C@H](OC(C)=O)[C@@]2(C)O1`, the GI50 in experiment [20], in [1], in experiment [2], in experiment [3], in [4] and in experiment [5] was > 100 µM (inactive) each time. In addition, the GI50 in experiment [7], in [8], in experiment [9], in [10], in experiment [11] and in experiment [13] was > 100 µM (inactive) throughout. Further, the GI50 in experiment [14], in experiment [15], in [16], in experiment [17] and in experiment [19] was > 100 µM (inactive) throughout.
For `C[C@H]1CC[C@@H]2[C@@H](C)[C@H]3[C@H](C[C@H]4[C@@H]5CC=C6C[C@@H](O)CC[C@]6(C)[C@H]5C[C@H](O)[C@]34C)N2C1`, the GI50 in experiment [20], in [1], in experiment [2], in experiment [3], in [4] and in experiment [5] was > 100 µM (inactive) throughout. For the same compound, the GI50 in [7], in [8], in [9], in [10], in experiment [11] and in experiment [12] was > 100 µM (inactive) each time. For the same compound, the GI50 in experiment [13], in [14], in experiment [15], in experiment [16], in [17] and in [18] was > 100 µM (inactive) each time. Moreover, in experiment [19], the GI50 is > 100 µM (inactive).
Take `CC(=O)OCC(OC(C)=O)C(OC(C)=O)C(/C=N\Nc1nc2ccccc2c(=O)[nH]1)=N\Nc1nc2ccccc2c(=O)[nH]1` (stereo not given): the GI50 in experiment [1] was > 100 µM (inactive); in experiment [2], > 100 µM (inactive); in experiment [3], > 100 µM (inactive); in [4], > 100 µM (inactive); in experiment [5], 19.1 µM (inactive); in experiment [6], > 100 µM (inactive). In addition, the GI50 in [7], in experiment [8], in [9], in experiment [10], in experiment [11] and in experiment [12] was > 100 µM (inactive) throughout. In addition, the GI50 in [13] is > 100 µM (inactive); in experiment [14], > 100 µM (inactive); in experiment [15], > 100 µM (inactive); in [16], 63.8 µM (inactive); in experiment [17], > 100 µM (inactive); in [19], > 100 µM (inactive).
